Like-named read-outs stand apart in the source and are kept apart here.
How the values were obtained:
[1] = molecular target: T1, HIV-1 RT-associated RNase H activity (Human immunodeficiency virus type 1 group M subtype B, UniProt P03366); test: biochemical; format: biochemical
T1 construct: His-tagged p66/p51 HIV-1 RT group M subtype B; His; made in house; host or cells: Escherichia coli M15
Description: (11) and β-thujaplicinol (BTP) used as positive controls.
(§1) His-tagged p66/p51 HIV-1 RT group M subtype B coded in a p6HRT-prot plasmid was expressed in the Escherichia coli strain M15.[65] Heterodimeric RTs were expressed essentially and purified as described.[66]
(§2) The HIV-1 RT-associated RNase H activity was measured as described.[68] Briefly, the reaction was carried out in a black 96-well plate in a total volume of 100 μL. […] Experiments were performed in duplicate and replicated at least two times. Data were analyzed as described.[36]

[2] = molecular target: T2, HIV-1 RT-RDDP activity (Human immunodeficiency virus type 1 group M subtype B, UniProt P03366); test: Polymerase assay (RNA-dependent DNA polymerase); format: biochemical
T2 construct: His-tagged p66/p51 HIV-1 RT group M subtype B; His; made in house; host or cells: Escherichia coli M15
Description: as §1
The HIV-1 RT-associated RNA-dependent DNA polymerase activity was measured as described.[65] Briefly, the reaction was carried out in a black 96-well plate in a total volume of 25 μL. Serial dilutions of compounds were added to the reaction mix containing 60 mM Tris HCl buffer pH 8.1, 8 mM MgCl2, 60 mM KCl, 13 mM DTT, 2.5 mM poly(A)-oligo(dT), and […].

[3] = molecular target: HIV-1 IN (Human immunodeficiency virus type 1 group M subtype B, UniProt P12497); test: biochemical
Description: His-tagged NL4-3 IN was expressed from a pET15b plasmid in the E. coli BL21 pLys strain. Recombinant protein was purified as previously described[67] following a batch preparation on Ni-NTA beads (Qiagen, Paris, France).
Both oligonucleotides were purchased from Integrated DNA Technologies, Inc. (Coralville, IA), and the gel was purified in-house. ST reactions were performed by adding molecules or an equivalent volume of 100% dimethyl sulfoxide (DMSO, used as the drug solvent) to a mixture of 20 nM duplex DNA substrate and 400 nM IN in 50 mM MOPS pH 7.2, 7.5 mM MgCl2, and 14 mM 2-mercaptoethanol. Mixtures were incubated at 37 °C for 2 h, and the reaction was quenched by addition of an equal volume of loading buffer [formamide containing 1% sodium dodecyl sulfate (SDS), 0.25% bromophenol blue, and xylene cyanol]. […] Dried gels were visualized using a FLA5000 (Fuji Photo Film, Tokyo, Japan). Densitometric analyses were performed using ImageQuant 5.1 software from GE Healthcare.

[4] = system: HIV-1 replication; test: HIV-1 replication in HeLa-CD4-LTR-β-gal reporter cells; format: cell-based
Description: (§3) HIV-1 replication was monitored using HeLa-CD4-LTR-β-gal reporter cells as previously described.[69] Briefly, β-galactosidase activity was monitored 24 h post infection using a replication-competent HIV produced in-house (H9-laï coculture) and a serial dilution of molecules or an equivalent volume of DMSO. In parallel, compounds’ toxicity was determined at 24 h in the same cell line using CellTiter 96 AQueous One Solution Cell Proliferation Assay (Promega, France).

[5] = Compounds' toxicity, CellTiter 96 AQueous One Solution Cell Proliferation Assay; format: cell-based; details: human
Description: as §3

[6] = molecular target: T3, R448A HIV-1 RT RNase H (Human immunodeficiency virus type 1 group M subtype B, UniProt P03366, R1047A); test: RNase H assay, point-mutant R448A RT; format: biochemical
T3 construct: Amino acid substitutions were introduced into the p66 HIV-1 RT subunit of a HIV-1 RT; His; made in house; host or cells: Escherichia coli M15
Description: (§4) An activity curve was performed for all of the enzymes (Figure S1), and a concentration was chosen in the linear dose-response range to perform the enzymatic-inhibition assays.
(§5) Amino acid substitutions were introduced into the p66 HIV-1 RT subunit of a HIV-1 RT using a QuikChange mutagenesis kit, following the manufacturer’s instructions (Agilent Technologies Inc., Santa Clara, CA).
as §2

[7] = molecular target: T4, K451A HIV-1 RT RNase H (Human immunodeficiency virus type 1 group M subtype B, UniProt P03366, K1050A); test: RNase H assay, point-mutant K451A RT; format: biochemical
T4 construct: Amino acid substitutions were introduced into the p66 HIV-1 RT subunit of a HIV-1 RT; His; made in house; host or cells: Escherichia coli M15
Description: as §4, §5, §2

[8] = molecular target: T5, N474A HIV-1 RT RNase H (Human immunodeficiency virus type 1 group M subtype B, UniProt P03366, N1073A); test: RNase H assay, point-mutant N474A RT; format: biochemical
T5 construct: Amino acid substitutions were introduced into the p66 HIV-1 RT subunit of a HIV-1 RT; His; made in house; host or cells: Escherichia coli M15
Description: as §4, §5, §2

[9] = molecular target: T6, Q475A HIV-1 RT RNase H (Human immunodeficiency virus type 1 group M subtype B, UniProt P03366, Q1074A); test: RNase H assay, point-mutant Q475A RT; format: biochemical
T6 construct: Amino acid substitutions were introduced into the p66 HIV-1 RT subunit of a HIV-1 RT; His; made in house; host or cells: Escherichia coli M15
Description: as §4, §5, §2

[10] = molecular target: T7, Y501A HIV-1 RT RNase H (Human immunodeficiency virus type 1 group M subtype B, UniProt P03366, Y1100A); test: RNase H assay, point-mutant Y501A RT; format: biochemical
T7 construct: Amino acid substitutions were introduced into the p66 HIV-1 RT subunit of a HIV-1 RT; His; made in house; host or cells: Escherichia coli M15
Description: as §4, §5, §2

[11] = molecular target: T8, W535A HIV-1 RT RNase H (Human immunodeficiency virus type 1 group M subtype B, UniProt P03366, W1134A); test: RNase H assay, point-mutant W535A RT; format: biochemical
T8 construct: Amino acid substitutions were introduced into the p66 HIV-1 RT subunit of a HIV-1 RT; His; made in house; host or cells: Escherichia coli M15
Description: as §4, §5, §2

[12] = molecular target: T9, K540A HIV-1 RT RNase H (Human immunodeficiency virus type 1 group M subtype B, UniProt P03366, K1139A); test: RNase H assay, point-mutant K540A RT; format: biochemical
T9 construct: Amino acid substitutions were introduced into the p66 HIV-1 RT subunit of a HIV-1 RT; His; made in house; host or cells: Escherichia coli M15
Description: as §4, §5, §2

[13] = system: IN; details: cited from earlier work
[14] = molecular target: RNase H; details: cited from earlier work
[15] = anti-RH activity (IC50 ± SD), HIV-1 RT-associated RNase H activity, dose-response curves, no preincubation
[16] = wt (RH IC50, uM), supplement CSV, mutagenesis study
[17] = Human immunodeficiency virus 1, 24 h, read-out: antiviral activity EC50
[18] = Human immunodeficiency virus 1, HeLa-CD4-LTR-β-gal cells, 24 h post infection, read-out: antiviral activity EC50
[19] = HeLa-CD4-LTR-β-gal cells, CC50 (cytotoxic concentration 50%), 24 h
[20] = HeLa-CD4-LTR-β-gal cells, supplement CSV, read-out: CC50

Row | SMILES | IC50 [1, 15] | IC50 [2] | IC50 [3] | SI (selectivity index = CC50/EC50) [4] | EC50 [4, 18] | CC50 at 24 h [5, 19] | CC50 at 24 h [5, 20] | further results
1 | O=C(O)c1cn(Cc2ccc(F)cc2)c2ccc(OCc3ccc(OCc4ccccc4)cc3)cc2c1=O [4t, 6-((4-(Benzyloxy)benzyl)oxy)-1-(4-fluorobenzyl)-4-oxo-1,4-dihydroquinoline-3-carboxylic Acid] | 7.48 ± 0.28 µM | 2.2 ± 0.1 µM | > 100 µM | >57.8 | – | – | – | IC50 [1, 16]: 1.9 ± 0.4 µM; EC50 [4, 17]: 1.73 ± 0.47 µM; CC50 at 24 h ([5]; HeLa-CD4-LTR-β-gal reporter cells, CC50 (cytotoxic concentration 50%), HeLa-CD4-LTR-β-gal cells, 24 h): > 100 µM; CC50 at 24 h ([5]; HeLa-CD4-LTR-β-gal reporter cells, supplement CSV, read-out: CC50): > 16 µM; IC50 [6]: 2.2 ± 1.3 µM; IC50 [7]: 2.9 ± 1.3 µM; IC50 [8]: 1.16 ± 1.41 µM; IC50 [9]: 15.6 ± 1.6 µM; IC50 [10]: > 100 µM; Fold increase in IC50 compared to wt RT, W535A [11]: > 52.4 fold; IC50 [11]: > 100 µM; W535A (Fold) ([11]; supplement CSV, vs wt): >52.4; IC50 [12]: 2 ± 1.2 µM
2 | O=C(O)c1cn(Cc2ccc(F)cc2)c2ccc(OCc3ccccc3)cc2c1=O [4l, 6-(Benzyloxy)-1-(4-fluorobenzyl)-4-oxo-1,4-dihydroquinoline-3-carboxylic Acid] | 34 ± 0.1 µM | 38.5 ± 7.1 µM | 0.41 ± 0.03 µM | >8.6 | 11.7 ± 2.5 µM | > 100 µM | – | EC50 ([4]; Human immunodeficiency virus 1, supplement CSV, read-out: EC50): 11.7 ± 2.15 µM
3 | CCOC(=O)c1cn(Cc2ccc(F)cc2)c2ccc(OCc3cccc(Cl)c3Cl)cc2c1=O [5m, Ethyl 6-((2,3-Dichlorobenzyl)oxy)-1-(4-fluorobenzyl)-4-oxo-1,4-dihydroquinoline-3-carboxylate] | 24 µM | 1.88 ± 0.04 µM | 0.05 ± 0.01 µM | 1.2 | 17.8 ± 2.3 µM | 21.6 ± 2.8 µM | 23.9 ± 4.5 µM | –
4 | O=C(O)c1cn(Cc2ccc(F)cc2)c2ccc(OCc3cccc4ccccc34)cc2c1=O [4o, 1-(4-Fluorobenzyl)-6-(naphthalen-1-ylmethoxy)-4-oxo-1,4-dihydroquinoline-3-carboxylic Acid] | 1.51 ± 0.21 µM | 11.4 ± 2.6 µM | > 100 µM | – | – | 51 ± 11 µM | – | IC50 [1, 16]: 5.2 ± 1.1 µM; EC50 [4, 17]: 8.4 ± 0.7 µM; IC50 [6]: 19.6 ± 1.24 µM; IC50 [7]: 11.8 ± 1.2 µM; IC50 [8]: 85.8 ± 1.6 µM; IC50 [9]: > 100 µM; IC50 [10]: > 100 µM; IC50 [11]: > 100 µM; IC50 [12]: 31.6 ± 1.2 µM
5 | O=C(O)c1cn(Cc2ccc(F)cc2)c2ccc(OCc3ccc(-c4ccccc4)cc3)cc2c1=O [4s, 6-([1,1′-Biphenyl]-4-ylmethoxy)-1-(4-fluorobenzyl)-4-oxo-1,4-dihydroquinoline-3-carboxylic Acid] | 7.47 ± 1.55 µM | 11.6 ± 5.5 µM | > 250 µM | >40 | 2.5 ± 1.03 µM | > 100 µM | > 16 µM | –
6 | CCOC(=O)c1cn(Cc2ccc(F)cc2)c2ccc(OCc3ccc(Cl)c(Cl)c3)cc2c1=O [5n, Ethyl 6-((3,4-Dichlorobenzyl)oxy)-1-(4-fluorobenzyl)-4-oxo-1,4-dihydroquinoline-3-carboxylate] | 37.2 ± 7.6 µM | 24.1 ± 8.6 µM | 9.45 ± 0.55 µM | 1.4 | 14.6 ± 3.1 µM | 20.6 ± 4.4 µM | – | IC50 ([1]; RH IC50 (uM), supplement CSV): 37.2 ± 7.58 µM
7 | O=C(O)c1cn(Cc2ccc(F)cc2)c2ccc(OCc3ccc(Cl)c(Cl)c3)cc2c1=O [4n, 6-((3,4-Dichlorobenzyl)oxy)-1-(4-fluorobenzyl)-4-oxo-1,4-dihydroquinoline-3-carboxylic Acid] | 29.5 ± 0.5 µM | 2 ± 0.8 µM | 3.25 ± 0.85 µM | >12.4 | 16.1 ± 5.5 µM | > 200 µM | > 50 µM | IC50 ([1]; RH IC50 (uM), supplement CSV): 29.5 ± 0.55 µM
8 | O=C(O)/C(O)=C/C(=O)c1cn(Cc2ccc(F)cc2)c2cc(N3CCCC3)ccc2c1=O [compound 2] | – | – | – | – | – | – | – | IC50 ([13]; read-out: IN inhibitory activity IC50): 0.028 µM; IC50 [14]: 5.1 µM
9 | O=C(/C=C/c1ccc2c(c1)c(=O)c(C(=O)O)cn2Cc1ccc(F)cc1)c1ccccc1 [4k, (E)-1-(4-Fluorobenzyl)-4-oxo-6-(3-oxo-3-phenylprop-1-en-1-yl)-1,4-dihydroquinoline-3 carboxylic Acid] | 5.9 ± 0.6 µM | > 100 µM | 3.38 ± 0.42 µM | 3.1 | 5.4 ± 3.1 µM | 17 ± 4 µM | – | –
10 | O=C(O)c1cn(Cc2ccc(F)cc2)c2ccc(OCc3cccc(Cl)c3Cl)cc2c1=O [4m, 6-((2,3-Dichlorobenzyl)oxy)-1-(4-fluorobenzyl)-4-oxo-1,4-dihydroquinoline-3-carboxylic Acid] | 8.19 ± 0.05 µM | 5.6 ± 0.6 µM | > 100 µM | >15 | 13.3 ± 4.5 µM | > 200 µM | > 50 µM | –
11 | CCOC(=O)/C(O)=C/C(=O)/C=C/c1cccn1Cc1ccc(F)cc1 [compound 1] | – | – | – | – | – | – | – | IC50 ([13]; supplement CSV, earlier compounds 1 and 2, ref 29−33, read-out: IN ST IC50): 90 µM
12 | O=C(O)c1cn(Cc2ccc(F)cc2)c2ccc(OCc3ccc4c(c3)OCO4)cc2c1=O [4q, 6-(Benzo[d][1,3]dioxol-5-ylmethoxy)-1-(4-fluorobenzyl)-4-oxo-1,4-dihydroquinoline-3-carboxylic Acid] | 13.5 µM | 5.1 ± 1.8 µM | > 100 µM | >17.7 | 11.3 ± 3.5 µM | > 200 µM | > 50 µM | –

From PMC8279492, “Quinolinonyl Non-Diketo Acid Derivatives as Inhibitors of HIV-1 Ribonuclease H and Polymerase Functions of Reverse Transcriptase” (Journal of Medicinal Chemistry, 2021)
